Assays:
[1] = biological target: T1, Thromboxane A2 (TXA2) synthetase (Equus caballus, UniProt A0A9L0T8T9); experiment: Inhibition of Thromboxane A2 (TXA2) synthetase (horse platelet microsome); assay type: biochemical; settings: read-out: Inhibition of Thromboxane A2 (TXA2) synthetase; for inhibition at 1 µM: 10^-6 M; for inhibition at 0.1 µM: 10^-7 M
T1 sequence (A0A9L0T8T9 2-534): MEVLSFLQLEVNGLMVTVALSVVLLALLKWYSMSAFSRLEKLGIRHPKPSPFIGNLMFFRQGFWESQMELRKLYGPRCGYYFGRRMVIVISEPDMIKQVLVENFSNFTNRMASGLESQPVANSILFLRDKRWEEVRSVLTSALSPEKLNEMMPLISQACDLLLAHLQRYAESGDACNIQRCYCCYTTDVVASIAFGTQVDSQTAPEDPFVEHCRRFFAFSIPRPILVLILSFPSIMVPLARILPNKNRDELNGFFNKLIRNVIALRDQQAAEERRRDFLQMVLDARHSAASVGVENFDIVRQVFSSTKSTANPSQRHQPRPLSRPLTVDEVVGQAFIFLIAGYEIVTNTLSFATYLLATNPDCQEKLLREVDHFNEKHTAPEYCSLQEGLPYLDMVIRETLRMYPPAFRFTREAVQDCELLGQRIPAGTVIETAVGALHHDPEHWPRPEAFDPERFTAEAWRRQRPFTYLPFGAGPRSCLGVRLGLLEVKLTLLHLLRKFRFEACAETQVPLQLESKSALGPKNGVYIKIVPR
Procedure: Inhibition of Thromboxane A2 (TXA2) synthetase
(§1) As a preparation of TXA2 synthetase, horse platelet microsome treated with indomethacin (indomethacin-treated horse platelet microsome: IPM) according to the method of Needleman et al. (Science 193 163, 1979) was used. To 60 μl of the solution of IPM in 50 mM Tris buffer(pH 7.5) (containing 140 μg on the protein basis), 60μof a solution containing a drug at a variable concentration was added and kept still at room temperature for 5 minutes. One hundred μl of this mixture was taken, to which 20 μl of a buffer containing 30 ng cf prostaglandin H2 (PGH2) with ice-cooling and kept still at 0° C. for 5 minutes to produce thromboxane A2 (TXA2). The reaction was stopped by addition of 500 μl of Tris buffer, and 50 μl of the resultant solution was subjected to radioimmunoassay of thromboxane B2 (TXB2), a stable metabolite of TXA2 [Shibouta et al. Biochem. Pharmacol. 28 3601, 1979]. The rate of inhibition (%) of TXA2 synthetase was determined from the difference in TXB2 productivity between the untreated group and the treated group.
as §1, with “60 μl of” for “60μof”, “of” for “cf”

[2] = system: lipid peroxide in rat brain homogenate; experiment: Inhibition of production of lipid peroxide in rat brain homogenate; assay type: biochemical, rat (Sprague-Dawley)
Procedure: Procedure: Sprague-Dawley rats (male, 9-15 weeks old) anesthetized with pentobarbital (50 mg/kg, intraperitoneal administration) were venesected and the brain tissue was resected. The tissue was homogenized in phosphate buffer (pH 7.4), and used as a 5% homogenate (on weight basis). The brain homogenate was allowed to react at 37° C. for 1 hour, and the amount of lipid peroxide produced was determined with the thiobarbituric acid method according to the method of Okawa et al. (Analytical Biochem 95 551, 1979). The drug was added to the 5% homogenate before the reaction at 37° C. for 1 hour so that the final concentration might be 5×10^-7 or 10^-6 M. Inhibition of production of lipid peroxide was expressed as the rate of inhibition in % of the amount produced in the solvent(DMSO)-treated group.

inhibition at 1 µM [1] [%]	inhibition at 0.1 µM [1] [%]	SMILES	Inhibition of production of lipid peroxide in rat brain homogenate ([2]; 5 × 10^-7 M) [%]	Inhibition of production of lipid peroxide in rat brain homogenate ([2]; 10^-6 M) [%]
76	37	CC1=C(C)C(=O)C(C(C)c2cccnc2)=C(C)C1=O (centres unmarked) [Compound No. 1, 3,5,6-trimethyl-2-[1-(3-pyridyl)ethyl]-1,4-benzoquinone]	6	90
87	48	CC1=C(C)C(=O)C(C(CCCCCC(=O)O)c2cccnc2)=C(C)C1=O (centres unmarked) [Compound No. 13, 7-(3-pyridyl)-7-(3,5,6-trimethyl-1,4-benzoquinon-2-yl)heptanoic acid]	20	84

— patent publication US4985447A, “Certain benzoquinones, naphthoquinones and derivatives thereof which exhibit thromboxane A2 synthetase inhibition or receptor antagonism and the like” (Takeda Chemical Industries, Ltd., priority 1986, dated 1991)
